Assay results published in US9522935B2, “Commands and method of treating cancer via RHO pathway” (priority 2013, dated 2016).

What was measured:
[1] = system: pancreatic cancer cell lines; assay: Nude mouse model of pancreatic cancer (xenograft), tumor size; assay type: in vivo, NOD/SCID mice; settings: 43 days
Method: Two strains of pancreatic cancer cell lines were selected to be grafted to nonobese diabetic/severe combined immunodeficient (NOD/SCID) mice, and the tumor was inoculated in mouse ventral sides. About two weeks, they were used as a nude mouse model of pancreatic cancer. […] Each of the above groups. The treatment continued for 43 days (gemcitabine alone group 2 times a week; other groups 3 times a week), and then tumor size was recorded as shown in FIG. 16. […] Further experiments were conducted to study the effects of the combinational use of LD030 with gemcitabine as compared being used alone on tumor inhibition. Four treatment groups were set up: (a) blank control, (2) gemcitabine (25 mg/kg/time, 2 times a week), (3) LD030 (0.5 mg/kg/time, 3 times a week), (4) LD030 (0.5 mg/kg/time, 3 times a week) together with gemcitabine (25 mg/kg/time, 2 times a week).

Panc1 cells = assay: MTT assay, compounds related to LD030 on Panc1 cells; assay type: cell-based, human; settings: 48 hours; for inhibition at 0.1 µM / inhibition at 1 µM / inhibition at 10 µM / inhibition at 100 µM: Homo sapiens, PANC-1, read-out: Effects on Panc1 Cells (inhibitory percentage)
Method: (§1) MTT assay was used to detect cell viability after being treated with different compounds of the present invention related to LD030. The cell lines treated were on non-small lung cancer cell line A549, HepG2 cells and Panc1 cells.
(§2) MTT preservation solution preparation: 0.5 g MTT was dissolved in 100 ml of phosphate buffer solution (PBS), and bacteria contaminates were removed with a 0.22 μm membrane filter to obtain 0.5% MTT solution, which was stored in the dark at −20° C.
(§3) MTT working solution preparation: MTT preservation solution was diluted 10 times with sterile PBS to obtain MTT working solution.
(§4) 1640 complete medium preparation: 1640 base medium was added with an amount of fetal bovine serum (FBS) so that the medium contains 10% FBS by volume. Then an amount of double-antibody (i.e., penicillin and streptomycin) was added to make final concentration of penicillin at 100 units/ml and streptomycin at 100 ug/ml.
(§5) The experimental procedure is as follows:
(§6) (1) Take trypsin digested logarithmic phase cells and adjust the concentration of the cell suspension to 6×10^4 cell/ml, and then add 100 ul suspension of the cells under the test to each well on a 96-well plate and adjusted to a density of 6000 cells/well. The edge orifice is filled with sterile PBS.
(§7) (2) Placed the 96-well plate into a 37° C. incubator with 5% CO2 and incubate it overnight.
(§8) (3) Dissolve the test compounds in 200 ul DMSO to get a 5 mg/ml solution and dilute it to get 100 uM, 10 uM, 1 uM and 0.1 uM solutions. Add 100 ul of a solution to each of three repeat wells. Set a control well which has cells but without the compound of the present invention and a blank cell which contains no cells.
(§9) (4) Put the 96-well plate into a 37° C. incubator with 5% CO2 and incubate it for 48 hours. Examine the cells daily under a microscope.
(§10) (5) After being cultured for 48 hours, centrifuge and discard the culture liquid. Add 100 ul MTT working solution to each well, and continue incubating for 4 h.
(§11) (6) Terminate the culture, and carefully remove the culture medium. Then add 100 ul DMSO to each well and shake it at a low speed in a shaker for 10 min to make all crystals fully dissolved. The absorbance value of each well was measured by an enzyme-linked immunosorbent detector at the OD570 nm, and the inhibition rate of the different compounds with different concentration on cell growth can be obtained.

[2] = system: non-small lung cancer cell line A549; assay: MTT assay, compounds related to LD030 on A549 cells; assay type: cell-based; settings: for Effects on A549 Cells (inhibitory percentage) / inhibition at 0.1 µM / inhibition at 1 µM / inhibition at 10 µM / inhibition at 100 µM: 48 hours; for inhibition at 0.1 µM / inhibition at 1 µM / inhibition at 10 µM / inhibition at 100 µM: Homo sapiens, A549, read-out: Effects on A549 Cells (inhibitory percentage)
Method: as §1, §2, §3, §4, §5, §6, §7, §8, §9, §10, §11

HepG2 cells = assay: MTT assay, compounds related to LD030 on HepG2 cells; assay type: cell-based, human; settings: 48 hours; for inhibition at 0.1 µM / inhibition at 1 µM / inhibition at 10 µM / inhibition at 100 µM: Homo sapiens, HepG2, read-out: Effects on HepG2 Cells (inhibitory percentage)
Method: as §1, §2, §3, §4, §5, §6, §7, §8, §9, §10, §11

Row | SMILES | inhibition at 0.1 µM (Panc1 cells; 0.1 μM) | inhibition at 1 µM (Panc1 cells; 1 μM) | inhibition at 10 µM (Panc1 cells; 10 μM) | inhibition at 100 µM (Panc1 cells; 100 μM) | inhibition at 0.1 µM ([2]; 0.1 μM) | inhibition at 1 µM ([2]; 1 μM) | inhibition at 10 µM ([2]; 10 μM) | inhibition at 100 µM ([2]; 100 μM) | inhibition at 0.1 µM (HepG2 cells; 0.1 μM) | inhibition at 1 µM (HepG2 cells; 1 μM) | inhibition at 10 µM (HepG2 cells; 10 μM) | inhibition at 100 µM (HepG2 cells; 100 μM) | further results
1 | Nc1ccn([C@@H]2O[C@H](CO)[C@@H](O)C2(F)F)c(=O)n1 [gemcitabine, reference compound] | – | – | – | – | – | – | – | – | – | – | – | – | tumor volume reduced ([1]; 25 mg/kg/time gemcitabine, FIG. 15): 37%; tumor size reduced ([1]; gemcitabine 25 mg/kg/time, 2 times a week, FIG. 17): 37%
2 | CC(C)=CCC[C@@H](C)[C@H]1CC[C@@]2(C)C3=C(CC[C@]12C)[C@@]1(C)CCC(=O)C(C)(C)[C@@H]1CC3 [LD 012] | – | – | – | – | – | – | – | – | – | – | – | – | Effects on Panc1 Cells (inhibitory percentage) (Panc1 cells; 0.1 μM): 5.68%; Effects on Panc1 Cells (inhibitory percentage) (Panc1 cells; 1 μM): 5.68%; Effects on Panc1 Cells (inhibitory percentage) (Panc1 cells; 10 μM): 10.20%; Effects on Panc1 Cells (inhibitory percentage) (Panc1 cells; 100 μM): 39.54%; Effects on A549 Cells (inhibitory percentage) ([2]; 0.1 μM): 1.31%; Effects on A549 Cells (inhibitory percentage) ([2]; 1 μM): 28.04%; Effects on A549 Cells (inhibitory percentage) ([2]; 10 μM): 39.34%; Effects on A549 Cells (inhibitory percentage) ([2]; 100 μM): 91.76%; inhibition rate on A549 ([2]; concentration not given): more than 90%; Effects on HepG2 Cells (inhibitory percentage) (HepG2 cells; 0.1 μM): 10.53%; Effects on HepG2 Cells (inhibitory percentage) (HepG2 cells; 1 μM): −15.82%; Effects on HepG2 Cells (inhibitory percentage) (HepG2 cells; 10 μM): −1.79%; Effects on HepG2 Cells (inhibitory percentage) (HepG2 cells; 100 μM): 47.72%
3 | CC(=O)O[C@H]1CC[C@]2(C)C3=C(CC[C@H]2C1(C)C)[C@]1(C)CCC(C(C)CCC(O)C(C)(C)O)[C@@]1(C)CC3 (some centres unmarked) [LD 021] | -12.6% | -4.96% | 2.16% | 48.8% | 3.13% | 1.31% | 1.53% | 45.5% | 12.7% | 13.1% | 12.7% | 24.6% | –
4 | CC(=O)O[C@H]1CC[C@]2(C)C3CC[C@]4(C)C(C(C)CCC(O)C(C)(C)O)CC[C@@]4(C)C3CC[C@H]2C1(C)C (some centres unmarked) [LD 028] | -9.19% | -0.48% | -0.4% | 0.16% | 3.24% | 10% | -1.75% | 29.2% | 29.4% | 37.4% | 67.8% | 45.8% | –
5 | CC(=O)OC(CCC(C)C1CC[C@@]2(C)C3=C(CC[C@]12C)[C@@]1(C)CCC(=O)C(C)(C)[C@@H]1CC3)C(C)(C)OC(C)=O (some centres unmarked) [LD 014] | -5.26% | -3.05% | 3.89% | 24.1% | 21.3% | 9.46% | 3.02% | 34.6% | 0.64% | -20.7% | 2.93% | 61.4% | –
6 | CC(CCC(=O)C(C)(C)O)C1CC[C@@]2(C)C34CC[C@H]5C(C)(C)C(=O)CC[C@]5(C)C3(CC[C@]12C)O4 (some centres unmarked) [LD 025] | -16.5% | -12.8% | -9.57% | -16% | 25.2% | 1.71% | 0.51% | 16.9% | -1.15% | -19.1% | -1.79% | 20.5% | –
7 | CC(=O)O[C@H]1CC[C@]2(C)C3=C(CC[C@H]2C1(C)C)[C@]1(C)CCC(C(C)CCC2OC2(C)C)[C@@]1(C)CC3 (some centres unmarked) [LD 026-1] | -2.84% | 9.46% | 8.83% | 34.4% | 21.8% | 6.66% | 8.3% | 39.8% | -3.32% | -0.13% | 12.7% | 58.1% | –
8 | CC(=O)O[C@H]1CC[C@@]2(C)[C@@H](CCC34OC32CC[C@]2(C)C(C(C)CCC3OC3(C)C)CC[C@@]42C)C1(C)C (some centres unmarked) [LD 026-2] | 8.79% | 7.59% | 14.6% | 21.5% | 2.51% | 6.88% | -2.33% | 33% | 20.3% | 32.8% | 20.8% | 33.9% | –
9 | CC(=O)OC(CCC(C)C1CC[C@@]2(C)C3=C(CC[C@]12C)[C@@]1(C)CC[C@H](OC(C)=O)C(C)(C)[C@@H]1CC3)C(C)(C)OC(C)=O (some centres unmarked) [LD 022] | – | – | – | – | – | – | – | – | – | – | – | – | Effects on Panc1 Cells (inhibitory percentage) (Panc1 cells; 0.1 μM): −6.95%; Effects on Panc1 Cells (inhibitory percentage) (Panc1 cells; 1 μM): −5.28%; Effects on Panc1 Cells (inhibitory percentage) (Panc1 cells; 10 μM): −2.48%; Effects on Panc1 Cells (inhibitory percentage) (Panc1 cells; 100 μM): −6.24%; Effects on A549 Cells (inhibitory percentage) ([2]; 0.1 μM): 4.73%; Effects on A549 Cells (inhibitory percentage) ([2]; 1 μM): 8.99%; Effects on A549 Cells (inhibitory percentage) ([2]; 10 μM): 6.92%; Effects on A549 Cells (inhibitory percentage) ([2]; 100 μM): 35.89%; Effects on HepG2 Cells (inhibitory percentage) (HepG2 cells; 0.1 μM): 20.67%; Effects on HepG2 Cells (inhibitory percentage) (HepG2 cells; 1 μM): 31.18%; Effects on HepG2 Cells (inhibitory percentage) (HepG2 cells; 10 μM): 24.88%; Effects on HepG2 Cells (inhibitory percentage) (HepG2 cells; 100 μM): 24.54%
10 | CC(=O)OC(CCC(C)C1CC[C@@]2(C)C34CC[C@H]5C(C)(C)[C@@H](OC(C)=O)CC[C@]5(C)C3(CC[C@]12C)O4)C(C)(C)OC(C)=O (some centres unmarked) [LD023] | – | – | – | – | – | – | – | – | – | – | – | – | Effects on Panc1 Cells (inhibitory percentage) (Panc1 cells; 0.1 μM): −5.92%; Effects on Panc1 Cells (inhibitory percentage) (Panc1 cells; 1 μM): −1.12%; Effects on Panc1 Cells (inhibitory percentage) (Panc1 cells; 10 μM): −2.56%; Effects on Panc1 Cells (inhibitory percentage) (Panc1 cells; 100 μM): 25.26%; Effects on A549 Cells (inhibitory percentage) ([2]; 0.1 μM): 8.01%; Effects on A549 Cells (inhibitory percentage) ([2]; 1 μM): 8.30%; Effects on A549 Cells (inhibitory percentage) ([2]; 10 μM): 6.11%; Effects on A549 Cells (inhibitory percentage) ([2]; 100 μM): 12.70%; Effects on HepG2 Cells (inhibitory percentage) (HepG2 cells; 0.1 μM): 26.53%; Effects on HepG2 Cells (inhibitory percentage) (HepG2 cells; 1 μM): 27.64%; Effects on HepG2 Cells (inhibitory percentage) (HepG2 cells; 10 μM): 19.13%; Effects on HepG2 Cells (inhibitory percentage) (HepG2 cells; 100 μM): 23.00%
11 | CC(=O)O[C@H]1CC[C@@]2(C)[C@@H](CCC34OC32CC[C@]2(C)C(C(C)CCC(O)C(C)(C)O)CC[C@@]42C)C1(C)C (some centres unmarked) [LD027] | 2.21% | 10.1% | 16.7% | 28.7% | -1.4% | -4.98% | 12.9% | 58.6% | – | – | – | – | –
12 | CC(CCC(O)C(C)(C)O)C1CC[C@@]2(C)C34CC[C@H]5C(C)(C)[C@@H](O)CC[C@]5(C)C3(CC[C@]12C)O4 (some centres unmarked) [LD 024] | -7.19% | -8.39% | -13% | 6.95% | 1.38% | 6.04% | -0.22% | 34.6% | 22% | 14.3% | 5.86% | 2.1% | –
